Test system: PIP tumor and PC3 tumor
Experiment: Biodistribution of 125I labeled compounds 17, 18, 26 and 27 in tumor bearing nude mice
Type: in vivo
Details: for Biodistribution: Bladder* / Biodistribution: Stomach* / Biodistribution: large intestine* / Biodistribution: small intestine*: organ with content; for PIP/blood / PIP/muscle: ratio
Method: Radioiodination and Purification: 100 μg of either precursor 13, 14, 22 or 23 were dissolved in 100 μL EtOH; 22 μL Na^125I (1033-1118 μCi in 0.1 N NaOH), 100 μL 1N HCl and 100 μL 3% H2O2 were added. After 15 minutes at room temperature, the reaction was stopped by adding 150 μL sat. NaHSO3. The reaction mixture was slowly added to 1.5 mL sat. NaHCO3. Vial was rinsed with 1000 μL EtOH and mixture was diluted further to 10 mL mL water. The active sample was transferred onto an activated C4 mini column. The mixture was pushed through, washed twice with 3 mL water and the product was eluted with 1 mL ACN. Added 100 μL DMSO. The mixture was concentrated to ˜100 μL and purified by HPLC (Agilent Eclipse XCD C18 150×4.6 mm, 5 μm; 4 mL/min, gradient (ACN and water; 0-1 min (20/80), 1-16 min (20/80-100/0), 16-16.5 min (100/0-20/80), 16.5-20 min 20/80) (collected every minute). The sample was blown to dryness under argon, re-dissolved in 500 μL CH2Cl2 and 1 mL TFA was added at room temperature. After 1 hr the solution was blown to dryness and activity taken into 1 mL EtOH (10 μL saturated ascorbic acid/EtOH was added). Isolated activities for [^125I]17, 18, 26, and 27 were 197, 189, 600 and 197 μCi respectively. A representative picture of HPLC profiles (FIG. 3) for radiolabeled protected (intermediate), cold standard and radioactive trace of final compound is shown for [^125I]26.
For iv injection 150 μL of labeled solution was diluted with saline to 3.75 mL. Mice were injected with 2˜3 μCi of [^125I]18, 27, 26, and 18 in 0.15 mL saline. Injected radioactivity was 2 to 3 μCi.
Biodistribution study of [^125I]18, 27, 26, and 18 in tumor bearing nude mice were evaluated for their ability to localization of PSMA positive tumor (Tables 5, 6, 7 and 8). It was observed that [^125I]26 and [^125I] […] These new agents are valuable for radionuclide therapy, when labeled with beta or alpha-emitting isotopes; but these agents will also be useful as diagnostic agents when labeled with gamma-emitting isotopes.

Q: What does the source list for `O=C(O)CC[C@H](NC(=O)N[C@@H](CCCCNC(=O)[C@H](Cc1ccccc1)NC(=O)[C@H](CCC(=O)O)NC(=O)c1ccc([125I])cc1)C(=O)O)C(=O)O` [[^125I]17]?
A: Biodistribution: Blood (1 h): 0.45 ± 0.11 % ID/g; Biodistribution: Bone (1 h): 0.16 ± 0.02 % ID/g; Biodistribution: Heart (1 h): 0.29 ± 0.04 % ID/g; Biodistribution: Kidney (1 h): 41.44 ± 5.10 % ID/g; Biodistribution: Liver (1 h): 2.94 ± 2.12 % ID/g; Biodistribution: Lung (1 h): 1.15 ± 1.27 % ID/g; Biodistribution: Muscle (1 h): 0.43 ± 0.24 % ID/g; Biodistribution: PC3 tumor (1 h): 1.70 ± 1.33 % ID/g; Biodistribution: PIP tumor (1 h): 10.72 ± 2.98 % ID/g; Biodistribution: Pancreas (1 h): 0.55 ± 0.64 % ID/g; Biodistribution: Skin (1 h): 0.57 ± 0.24 % ID/g; Biodistribution: Spleen (1 h): 3.25 ± 1.52 % ID/g; Biodistribution: gland (1 h): 0.81 ± 0.18 % ID/g; Biodistribution: thyroid (1 h): 3.57 ± 0.75 % ID/g; Biodistribution: Bladder* (1 h): 204.72 ± 108.11 % ID/g; Biodistribution: Stomach* (1 h): 0.18 ± 0.05 % ID/g; Biodistribution: large intestine* (1 h): 2.10 ± 1.64 % ID/g; Biodistribution: small intestine* (1 h): 3.22 ± 1.64 % ID/g; PIP/blood (1 h): 23.69 ± 2.07; PIP/muscle (1 h): 27.52 ± 7.80; Biodistribution: Blood (4 h): 0.09 ± 0.03 % ID/g; Biodistribution: Bone (4 h): 0.03 ± 0.02 % ID/g; Biodistribution: Heart (4 h): 0.11 ± 0.07 % ID/g; Biodistribution: Kidney (4 h): 25.41 ± 7.57 % ID/g; Biodistribution: Liver (4 h): 0.48 ± 0.53 % ID/g; Biodistribution: Lung (4 h): 0.19 ± 0.13 % ID/g; Biodistribution: Muscle (4 h): 0.25 ± 0.44 % ID/g; Biodistribution: PC3 tumor (4 h): 0.28 ± 0.10 % ID/g; Biodistribution: PIP tumor (4 h): 5.17 ± 2.02 % ID/g; Biodistribution: Pancreas (4 h): 0.22 ± 0.25 % ID/g; Biodistribution: Skin (4 h): 0.11 ± 0.04 % ID/g; Biodistribution: Spleen (4 h): 0.46 ± 0.27 % ID/g; Biodistribution: gland (4 h): 0.19 ± 0.05 % ID/g; Biodistribution: thyroid (4 h): 7.16 ± 1.91 % ID/g; Biodistribution: Bladder* (4 h): 68.75 ± 30.09 % ID/g; Biodistribution: Stomach* (4 h): 0.11 ± 0.10 % ID/g; Biodistribution: large intestine* (4 h): 0.86 ± 0.22 % ID/g; Biodistribution: small intestine* (4 h): 0.23 ± 0.16 % ID/g; PIP/blood (4 h): 62.95 ± 31.81; PIP/muscle (4 h): 200.29 ± 221.74; Washout in PIP tumors, kidneys and spleen compared to [125I]18 and [125I]27 (mouse, in vivo): significantly faster washout

Q: What does the source list for `O=C(O)CC[C@H](NC(=O)N[C@@H](CCCCNC(=O)[C@H](Cc1ccccc1)NC(=O)[C@H](CCC(=O)O)NC(=O)[C@H](CCC(=O)O)NC(=O)c1ccc([125I])cc1)C(=O)O)C(=O)O` [[^125I]18]?
A: Biodistribution: Blood (1 h): 0.71 ± 0.31 % ID/g; Biodistribution: Bone (1 h): 0.89 ± 0.08 % ID/g; Biodistribution: Heart (1 h): 3.06 ± 0.48 % ID/g; Biodistribution: Kidney (1 h): 96.21 ± 21.68 % ID/g; Biodistribution: Liver (1 h): 3.57 ± 0.32 % ID/g; Biodistribution: Lung (1 h): 3.16 ± 0.55 % ID/g; Biodistribution: Muscle (1 h): 0.95 ± 0.27 % ID/g; Biodistribution: PC3 tumor (1 h): 2.22 ± 0.58 % ID/g; Biodistribution: PIP tumor (1 h): 13.29 ± 3.46 % ID/g; Biodistribution: Pancreas (1 h): 1.66 ± 0.93 % ID/g; Biodistribution: Skin (1 h): 1.48 ± 0.44 % ID/g; Biodistribution: Spleen (1 h): 6.83 ± 0.46 % ID/g; Biodistribution: gland (1 h): 4.03 ± 0.46 % ID/g; Biodistribution: thyroid (1 h): 15.99 ± 1.88 % ID/g; Biodistribution: Bladder* (1 h): 97.62 ± 20.87 % ID/g; Biodistribution: Stomach* (1 h): 0.46 ± 0.29 % ID/g; Biodistribution: large intestine* (1 h): 1.12 ± 0.65 % ID/g; Biodistribution: small intestine* (1 h): 1.98 ± 0.27 % ID/g; PIP/blood (1 h): 21.30 ± 8.28; PIP/muscle (1 h): 16.14 ± 10.36; Biodistribution: Blood (4 h): 0.33 ± 0.17 % ID/g; Biodistribution: Bone (4 h): 0.45 ± 0.23 % ID/g; Biodistribution: Heart (4 h): 1.60 ± 0.46 % ID/g; Biodistribution: Kidney (4 h): 69.39 ± 24.24 % ID/g; Biodistribution: Liver (4 h): 2.62 ± 1.62 % ID/g; Biodistribution: Lung (4 h): 1.50 ± 0.65 % ID/g; Biodistribution: Muscle (4 h): 0.69 ± 0.27 % ID/g; Biodistribution: PC3 tumor (4 h): 1.20 ± 0.52 % ID/g; Biodistribution: PIP tumor (4 h): 15.27 ± 5.40 % ID/g; Biodistribution: Pancreas (4 h): 0.89 ± 0.13 % ID/g; Biodistribution: Skin (4 h): 0.81 ± 0.37 % ID/g; Biodistribution: Spleen (4 h): 4.37 ± 1.70 % ID/g; Biodistribution: gland (4 h): 2.25 ± 0.80 % ID/g; Biodistribution: thyroid (4 h): 26.99 ± 18.70 % ID/g; Biodistribution: Bladder* (4 h): 123.13 ± 40.10 % ID/g; Biodistribution: Stomach* (4 h): 0.72 ± 0.76 % ID/g; Biodistribution: large intestine* (4 h): 0.74 ± 0.25 % ID/g; Biodistribution: small intestine* (4 h): 1.11 ± 0.82 % ID/g; PIP/blood (4 h): 50.29 ± 15.07; PIP/muscle (4 h): 25.78 ± 14.13; Liver uptakes (mouse, in vivo): low

Q: Which results are given for `O=C(O)CC[C@H](NC(=O)N[C@@H](CCCCNC(=O)[C@H](Cc1ccccc1)NC(=O)COc1ccc(C[C@H](NC(=O)[C@H](CCC(=O)O)NC(=O)c2ccc([125I])cc2)C(=O)O)cc1)C(=O)O)C(=O)O` [[^125I]26]?
A: Biodistribution: Blood (1 h): 0.46 ± 0.22 % ID/g; Biodistribution: Bone (1 h): 0.48 ± 0.11 % ID/g; Biodistribution: Heart (1 h): 0.73 ± 0.20 % ID/g; Biodistribution: Kidney (1 h): 174.61 ± 30.65 % ID/g; Biodistribution: Liver (1 h): 4.61 ± 1.72 % ID/g; Biodistribution: Lung (1 h): 3.08 ± 0.87 % ID/g; Biodistribution: Muscle (1 h): 1.72 ± 0.54 % ID/g; Biodistribution: PC3 tumor (1 h): 2.39 ± 1.42 % ID/g; Biodistribution: PIP tumor (1 h): 26.19 ± 3.46 % ID/g; Biodistribution: Pancreas (1 h): 0.98 ± 0.42 % ID/g; Biodistribution: Skin (1 h): 2.33 ± 0.61 % ID/g; Biodistribution: Spleen (1 h): 21.66 ± 2.63 % ID/g; Biodistribution: gland (1 h): 6.97 ± 1.06 % ID/g; Biodistribution: thyroid (1 h): 13.21 ± 8.48 % ID/g; Biodistribution: Bladder* (1 h): 14.69 ± 3.80 % ID/g; Biodistribution: Stomach* (1 h): 0.35 ± 0.11 % ID/g; Biodistribution: large intestine* (1 h): 1.24 ± 0.79 % ID/g; Biodistribution: small intestine* (1 h): 1.08 ± 0.63 % ID/g; PIP/blood (1 h): 66.04 ± 29.31; PIP/muscle (1 h): 16.02 ± 3.85; Biodistribution: Blood (4 h): 0.21 ± 0.21 % ID/g; Biodistribution: Bone (4 h): 0.25 ± 0.06 % ID/g; Biodistribution: Heart (4 h): 0.38 ± 0.23 % ID/g; Biodistribution: Kidney (4 h): 114.69 ± 32.67 % ID/g; Biodistribution: Liver (4 h): 4.90 ± 1.80 % ID/g; Biodistribution: Lung (4 h): 2.08 ± 0.67 % ID/g; Biodistribution: Muscle (4 h): 0.30 ± 0.19 % ID/g; Biodistribution: PC3 tumor (4 h): 1.37 ± 0.45 % ID/g; Biodistribution: PIP tumor (4 h): 14.32 ± 3.87 % ID/g; Biodistribution: Pancreas (4 h): 0.52 ± 0.26 % ID/g; Biodistribution: Skin (4 h): 1.67 ± 1.30 % ID/g; Biodistribution: Spleen (4 h): 15.37 ± 3.26 % ID/g; Biodistribution: gland (4 h): 2.03 ± 1.29 % ID/g; Biodistribution: thyroid (4 h): 28.57 ± 10.04 % ID/g; Biodistribution: Bladder* (4 h): 15.11 ± 4.09 % ID/g; Biodistribution: Stomach* (4 h): 0.49 ± 0.27 % ID/g; Biodistribution: large intestine* (4 h): 1.35 ± 0.47 % ID/g; Biodistribution: small intestine* (4 h): 0.30 ± 0.11 % ID/g; PIP/blood (4 h): 104.80 ± 62.05; PIP/muscle (4 h): 60.91 ± 38.35; Liver uptakes (mouse, in vivo): low; Uptakes in PIP tumors, kidneys and spleen compared to [125I]17 and [125I]18 (mouse, in vivo): higher uptakes; Washout in PIP tumors, kidneys and spleen compared to [125I]18 and [125I]27 (mouse, in vivo): significantly faster washout
